This experiment concerns MV-4-11 cells. The experiment is described as follows: Gene expression microarray analysis (Affymetrix PrimeView) and GSEA. The arrangement: RFU PODN (11730768_x_at) / Fold change /veh PODN (11730768_x_at) / RFU LINC00158 (11744669_a_at) / Fold change /veh LINC00158 (11744669_a_at) / RFU DUSP10 (11751237_a_at) / Fold change /veh DUSP10 (11751237_a_at) / RFU ID3 (11757404_x_at) / Fold change /veh ID3 (11757404_x_at) / RFU PLEKHG5 (11737974_s_at) / Fold change /veh PLEKHG5 (11737974_s_at) / RFU LRRC4B (11730491_at) / Fold change /veh LRRC4B (11730491_at) / RFU GIMAP4 (11747438_a_at) / Fold change /veh GIMAP4 (11747438_a_at) / RFU KRT8 (11758183_x_at) / Fold change /veh KRT8 (11758183_x_at) / RFU CNN1 (11734310_a_at) / Fold change /veh CNN1 (11734310_a_at) / RFU VPS37D (11726825_at) / Fold change /veh VPS37D (11726825_at) / RFU C10orf10 (11716522_x_at) / Fold change /veh C10orf10 (11716522_x_at) / RFU KIR2DL2 /// KIR2DL4 /// KIR2DL5A /// KIR2DL5B /// KIR2DS1 /// KIR2DS2 /// KIR2DS3 /// KIR2DS4 /// KIR3DL3 /// KIR3DL3 /// KIR3DS1 (11738374_at) / Fold change /veh KIR2DL2 /// KIR2DL4 /// KIR2DL5A /// KIR2DL5B /// KIR2DS1 /// KIR2DS2 /// KIR2DS3 /// KIR2DS4 /// KIR3DL3 /// KIR3DL3 /// KIR3DS1 (11738374_at) / RFU C1QL1 (11718748_at) / Fold change /veh C1QL1 (11718748_at) / RFU TMPRSS4 (11747572_a_at) / Fold change /veh TMPRSS4 (11747572_a_at) / RFU HAMP (11756126_x_at) / Fold change /veh HAMP (11756126_x_at) / RFU RNFT2 (11725882_a_at) / Fold change /veh RNFT2 (11725882_a_at) / RFU NR4A2 (11747474_a_at) / Fold change /veh NR4A2 (11747474_a_at) / RFU ABCC12 (11746883_a_at) / Fold change /veh ABCC12 (11746883_a_at) / RFU TMEM136 (11760407_x_at) / Fold change /veh TMEM136 (11760407_x_at) / RFU CLDN22 /// WWC2 (11732394_at) / Fold change /veh CLDN22 /// WWC2 (11732394_at) / RFU HLA-DPB1 (11760878_x_at) / Fold change /veh HLA-DPB1 (11760878_x_at) / RFU SPINT1 (11716480_a_at) / Fold change /veh SPINT1 (11716480_a_at) / RFU GAP43 (11754022_s_at) / Fold change /veh GAP43 (11754022_s_at) / RFU A4GNT (11735810_at) / Fold change /veh A4GNT (11735810_at) / RFU PRB3 (11715151_x_at) / Fold change /veh PRB3 (11715151_x_at) / RFU TUBB4B (11761932_at) / Fold change /veh TUBB4B (11761932_at) / RFU CAPN14 (11732068_a_at) / Fold change /veh CAPN14 (11732068_a_at) / RFU TMCC2 (11721928_a_at) / Fold change /veh TMCC2 (11721928_a_at) / RFU IRGQ (11745062_a_at) / Fold change /veh IRGQ (11745062_a_at) / RFU FAM174B (11720279_a_at) / Fold change /veh FAM174B (11720279_a_at) / RFU TMPRSS4 (11748680_a_at) / Fold change /veh TMPRSS4 (11748680_a_at) / RFU FAM212B (11763350_a_at) / Fold change /veh FAM212B (11763350_a_at) / RFU PLEKHG5 (11743358_a_at) / Fold change /veh PLEKHG5 (11743358_a_at) / RFU ZSCAN30 (11745921_a_at) / Fold change /veh ZSCAN30 (11745921_a_at) / RFU CMKLR1 (11741424_a_at) / Fold change /veh CMKLR1 (11741424_a_at) / RFU LOC101060620 /// MAPK8IP1 (11723275_at) / Fold change /veh LOC101060620 /// MAPK8IP1 (11723275_at) / RFU SPTSSB (11747773_x_at) / Fold change /veh SPTSSB (11747773_x_at) / RFU PRSS12 (11739890_at) / Fold change /veh PRSS12 (11739890_at) / RFU BIN1 (11741810_x_at) / Fold change /veh BIN1 (11741810_x_at) / RFU WNT11 (11732464_a_at) / Fold change /veh WNT11 (11732464_a_at) / RFU C10orf10 (11716521_a_at) / Fold change /veh C10orf10 (11716521_a_at) / RFU C5orf56 (11738089_at) / Fold change /veh C5orf56 (11738089_at) / RFU CYB561 (11721691_x_at) / Fold change /veh CYB561 (11721691_x_at) / RFU ANKRD19P (11752326_a_at) / Fold change /veh ANKRD19P (11752326_a_at) / RFU OR2T12 /// OR2T33 /// OR2T8 (11738714_s_at) / Fold change /veh OR2T12 /// OR2T33 /// OR2T8 (11738714_s_at) / RFU VCAN (11748164_a_at) / Fold change /veh VCAN (11748164_a_at) / RFU JSRP1 (11732532_at) / Fold change /veh JSRP1 (11732532_at) / RFU KRTAP10-11 (11738290_x_at) / Fold change /veh KRTAP10-11 (11738290_x_at) / RFU MYO3A (11730013_a_at) / Fold change /veh MYO3A (11730013_a_at) / RFU EBF3 (11725865_a_at) / Fold change /veh EBF3 (11725865_a_at) / RFU CAMK2N1 (11719241_x_at) / Fold change /veh CAMK2N1 (11719241_x_at) / RFU C5orf56 (11738088_a_at) / Fold change /veh C5orf56 (11738088_a_at) / RFU OLFML3 (11715873_a_at) / Fold change /veh OLFML3 (11715873_a_at) / RFU LOC100653217 /// NTM (11731650_a_at) / Fold change /veh LOC100653217 /// NTM (11731650_a_at) / RFU MAPK11 (11762145_a_at) / Fold change /veh MAPK11 (11762145_a_at) / RFU FIZ1 (11724087_x_at) / Fold change /veh FIZ1 (11724087_x_at) / RFU OASL (11726364_x_at) / Fold change /veh OASL (11726364_x_at) / RFU SOX15 (11748057_x_at) / Fold change /veh SOX15 (11748057_x_at) / RFU CD79A (11719716_a_at) / Fold change /veh CD79A (11719716_a_at) / RFU HIST1H1D (11736915_at) / Fold change /veh HIST1H1D (11736915_at) / RFU CASKIN2 (11723855_a_at) / Fold change /veh CASKIN2 (11723855_a_at) / RFU LOC730098 (11760151_x_at) / Fold change /veh LOC730098 (11760151_x_at) / RFU OR4N2 (11742367_at) / Fold change /veh OR4N2 (11742367_at) / RFU PRRT2 (11749266_a_at) / Fold change /veh PRRT2 (11749266_a_at) / RFU SNX32 (11753110_a_at) / Fold change /veh SNX32 (11753110_a_at) / RFU CDHR5 (11726645_a_at) / Fold change /veh CDHR5 (11726645_a_at) / RFU RCAN1 (11760418_a_at) / Fold change /veh RCAN1 (11760418_a_at) / RFU FAM167A (11723789_a_at) / Fold change /veh FAM167A (11723789_a_at) / RFU FAM26E (11764081_at) / Fold change /veh FAM26E (11764081_at) / RFU ISYNA1 (11749810_s_at) / Fold change /veh ISYNA1 (11749810_s_at) / RFU ACY1 (11761880_at) / Fold change /veh ACY1 (11761880_at) / RFU 11764098_at / Fold change /veh 11764098_at / RFU SAMD14 (11745864_x_at) / Fold change /veh SAMD14 (11745864_x_at) / RFU NPB (11741838_a_at) / Fold change /veh NPB (11741838_a_at) / RFU TMPRSS6 (11731388_a_at) / Fold change /veh TMPRSS6 (11731388_a_at) / RFU KRTAP10-2 (11738614_at) / Fold change /veh KRTAP10-2 (11738614_at) / RFU ARHGAP8 /// PRR5-ARHGAP8 (11727945_x_at) / Fold change /veh ARHGAP8 /// PRR5-ARHGAP8 (11727945_x_at) / RFU KRTAP5-7 /// NADSYN1 (11734609_at) / Fold change /veh KRTAP5-7 /// NADSYN1 (11734609_at) / RFU RASL12 (11751679_a_at) / Fold change /veh RASL12 (11751679_a_at) / RFU CDKN2B (11736163_a_at) / Fold change /veh CDKN2B (11736163_a_at) / RFU PRF1 (11729649_at) / Fold change /veh PRF1 (11729649_at) / RFU, ZNF638 /// ZNF638-IT1 / Fold change vs veh, ZNF638 /// ZNF638-IT1 / RFU, PANK3 / Fold change vs veh, PANK3 / RFU, SH3YL1 / Fold change vs veh, SH3YL1 / RFU, ZEB2 / Fold change vs veh, ZEB2 / RFU, NRIP1 / Fold change vs veh, NRIP1 / RFU, PTTG1IP / Fold change vs veh, PTTG1IP / RFU, CAPN2 / Fold change vs veh, CAPN2 / RFU, MED14 / Fold change vs veh, MED14 / RFU, SNORA58 / Fold change vs veh, SNORA58 / RFU, C1orf63 / Fold change vs veh, C1orf63 / RFU, LRRFIP1 / Fold change vs veh, LRRFIP1 / RFU, NDUFAF7 / Fold change vs veh, NDUFAF7 / RFU, SLC12A2 / Fold change vs veh, SLC12A2 / RFU, IBTK / Fold change vs veh, IBTK / RFU, ESF1 / Fold change vs veh, ESF1 / Fold change vs veh, TMEM50B / RFU, TAOK1 / Fold change vs veh, TAOK1 / RFU, ACBD3 / Fold change vs veh, ACBD3 / RFU, TMA16 / Fold change vs veh, TMA16 / RFU, RWDD3 / Fold change vs veh, RWDD3 / RFU, BCAT1 / Fold change vs veh, BCAT1 / RFU, EDEM3 / Fold change vs veh, EDEM3 / RFU, TMEM33 / Fold change vs veh, TMEM33 / RFU, WDR75 / Fold change vs veh, WDR75 / RFU, AHCTF1 / Fold change vs veh, AHCTF1 / RFU, TFRC / Fold change vs veh, TFRC / RFU, ZDHHC17 / Fold change vs veh, ZDHHC17 / RFU, NOM1 / Fold change vs veh, NOM1 / RFU, ARL8B / Fold change vs veh, ARL8B / RFU, ZBTB11 / Fold change vs veh, ZBTB11 / RFU, TAMM41 / Fold change vs veh, TAMM41 / RFU, KIAA1704 /// LOC100996395 / Fold change vs veh, KIAA1704 /// LOC100996395 / RFU, ING1 / Fold change vs veh, ING1 / RFU, TRMT61B / Fold change vs veh, TRMT61B / RFU, FUBP3 / Fold change vs veh, FUBP3 / RFU, TP53 / Fold change vs veh, TP53 / RFU, TNKS2 / Fold change vs veh, TNKS2 / RFU, ZFP14 / Fold change vs veh, ZFP14 / RFU, ACTR2 / Fold change vs veh, ACTR2 / RFU, PPP3R1 / Fold change vs veh, PPP3R1 / RFU, PIK3R1 / Fold change vs veh, PIK3R1 / RFU, HNRNPA1 / Fold change vs veh, HNRNPA1 / RFU, RNF170 / Fold change vs veh, RNF170 / RFU, ZNF28 / Fold change vs veh, ZNF28 / RFU, RNGTT / Fold change vs veh, RNGTT / RFU, OGT / Fold change vs veh, OGT / RFU, BRD1 / Fold change vs veh, BRD1 / RFU, MARS / Fold change vs veh, MARS / RFU, ZNF655 / Fold change vs veh, ZNF655 / RFU, FAHD1 / Fold change vs veh, FAHD1 / RFU, BDP1 / Fold change vs veh, BDP1 / RFU, LRRCC1 / Fold change vs veh, LRRCC1 / RFU, ARID1A / Fold change vs veh, ARID1A / RFU, ZNF146 / Fold change vs veh, ZNF146 / RFU, ZNF330 / Fold change vs veh, ZNF330 / RFU, GPN3 / Fold change vs veh, GPN3 / RFU, C9orf123 / Fold change vs veh, C9orf123 / RFU, N4BP2L2 / Fold change vs veh, N4BP2L2 / RFU, ARFIP1 / Fold change vs veh, ARFIP1 / RFU, FAM179B / Fold change vs veh, FAM179B / RFU, BCL10 / Fold change vs veh, BCL10 / RFU, UHRF1BP1L / Fold change vs veh, UHRF1BP1L / RFU, BET1 / Fold change vs veh, BET1 / RFU, CNOT2 / Fold change vs veh, CNOT2 / RFU, ZNF268 / Fold change vs veh, ZNF268 / Fold change vs veh, ZNF507 / RFU, DGCR2 / Fold change vs veh, DGCR2 / RFU, WDSUB1 / Fold change vs veh, WDSUB1 / Fold change vs veh, HSP90B1 /// MIR3652 / RFU, ADSS / Fold change vs veh, ADSS / RFU, GK / Fold change vs veh, GK / RFU, ZNF148 / Fold change vs veh, ZNF148 / RFU, TAF9 / Fold change vs veh, TAF9 / RFU, SLC1A5 / Fold change vs veh, SLC1A5 / RFU, SLMO2 / Fold change vs veh, SLMO2 / RFU, ABCC4 / Fold change vs veh, ABCC4 / RFU, LOC101060439 /// RAP1B / Fold change vs veh, LOC101060439 /// RAP1B / RFU, RFX7 / Fold change vs veh, RFX7 / RFU, GTPBP10 / Fold change vs veh, GTPBP10 / RFU, CNEP1R1 / Fold change vs veh, CNEP1R1 / RFU, BIVM-ERCC5 /// ERCC5 / Fold change vs veh, BIVM-ERCC5 /// ERCC5 / RFU, ILF3 / Fold change vs veh, ILF3 / RFU 11762660_at / Fold change /veh 11762660_at / RFU VCAN (11757783_s_at) / Fold change /veh VCAN (11757783_s_at) / RFU DDX43 (11728927_at) / Fold change /veh DDX43 (11728927_at) / RFU KRT8 (11758188_x_at) / Fold change /veh KRT8 (11758188_x_at) / RFU NKD1 (11759106_at) / Fold change /veh NKD1 (11759106_at) / RFU SRD5A1 (11742802_a_at) / Fold change /veh SRD5A1 (11742802_a_at) / RFU TPSAB1 /// TPSB2 (11721975_s_at) / Fold change /veh TPSAB1 /// TPSB2 (11721975_s_at) / RFU GSTM3 (11746129_a_at) / Fold change /veh GSTM3 (11746129_a_at) / RFU IL23R (11737362_x_at) / Fold change /veh IL23R (11737362_x_at) / RFU TMEM51 (11727254_a_at) / Fold change /veh TMEM51 (11727254_a_at) / RFU PIWIL2 (11732686_x_at) / Fold change /veh PIWIL2 (11732686_x_at) / RFU ORM1 (11744905_x_at) / Fold change /veh ORM1 (11744905_x_at) / RFU CCDC152 (11743942_at) / Fold change /veh CCDC152 (11743942_at) / RFU ECM1 (11717891_a_at) / Fold change /veh ECM1 (11717891_a_at) / RFU IL23R (11748794_a_at) / Fold change /veh IL23R (11748794_a_at) / RFU TNFAIP8L3 (11732012_x_at) / Fold change /veh TNFAIP8L3 (11732012_x_at) / RFU MBOAT4 (11741988_at) / Fold change /veh MBOAT4 (11741988_at) / RFU 11764193_at / Fold change /veh 11764193_at / RFU TMEM53 (11763286_at) / Fold change /veh TMEM53 (11763286_at) / RFU MAGEB2 (11727129_at) / Fold change /veh MAGEB2 (11727129_at) / RFU TMEM200A (11744735_a_at) / Fold change /veh TMEM200A (11744735_a_at) / RFU CCDC152 (11751479_a_at) / Fold change /veh CCDC152 (11751479_a_at) / RFU FAM211A (11726209_a_at) / Fold change /veh FAM211A (11726209_a_at) / RFU RGS16 (11746705_a_at) / Fold change /veh RGS16 (11746705_a_at) / RFU VCAN (11755009_s_at) / Fold change /veh VCAN (11755009_s_at) / RFU RHOB (11743442_s_at) / Fold change /veh RHOB (11743442_s_at) / RFU RGS16 (11720943_a_at) / Fold change /veh RGS16 (11720943_a_at) / RFU RGS16 (11720944_at) / Fold change /veh RGS16 (11720944_at) / RFU, VPS4B / Fold change vs veh, VPS4B / RFU, CREB1 / Fold change vs veh, CREB1 / RFU, DNAJC13 / Fold change vs veh, DNAJC13 / RFU, GNAQ / Fold change vs veh, GNAQ / RFU, CDK5R1 / Fold change vs veh, CDK5R1 / RFU, ZRANB3 / Fold change vs veh, ZRANB3 / RFU, CUL4A / Fold change vs veh, CUL4A / RFU, CCNY / Fold change vs veh, CCNY / RFU, UFL1 / Fold change vs veh, UFL1 / RFU, COG3 / Fold change vs veh, COG3 / RFU, DIAPH2 / Fold change vs veh, DIAPH2 / RFU, SKA2 / Fold change vs veh, SKA2 / RFU, AFF3 / Fold change vs veh, AFF3 / RFU, LMF1 / Fold change vs veh, LMF1 / RFU, IPO11 / Fold change vs veh, IPO11 / RFU, DFFB / Fold change vs veh, DFFB / RFU, FOXP1 / Fold change vs veh, FOXP1 / RFU, CARD8 / Fold change vs veh, CARD8 / RFU, STRN3 / Fold change vs veh, STRN3 / RFU, ADK / Fold change vs veh, ADK / RFU, RASSF2 / Fold change vs veh, RASSF2 / RFU, WIPF1 / Fold change vs veh, WIPF1 / RFU, LARP1B / Fold change vs veh, LARP1B / RFU, RASA1 / Fold change vs veh, RASA1 / RFU, RB1 / Fold change vs veh, RB1 / RFU, PPFIA1 / Fold change vs veh, PPFIA1 / RFU, MAT2A / Fold change vs veh, MAT2A / RFU, CCT5 / Fold change vs veh, CCT5 / RFU, WDR92 / Fold change vs veh, WDR92 / RFU, CUX1 / Fold change vs veh, CUX1 / RFU, TTC7A / Fold change vs veh, TTC7A / RFU, TMEM135 / Fold change vs veh, TMEM135 / RFU, DEPTOR / Fold change vs veh, DEPTOR / RFU, CPM / Fold change vs veh, CPM / RFU, DNAJB6 / Fold change vs veh, DNAJB6 / RFU, CACNA2D3 / Fold change vs veh, CACNA2D3 / RFU, DTX4 / Fold change vs veh, DTX4 / RFU, TFCP2 / Fold change vs veh, TFCP2 / RFU, GMCL1 /// GMCL1P1 / Fold change vs veh, GMCL1 /// GMCL1P1 / RFU, AEBP2 / Fold change vs veh, AEBP2 / RFU, SNHG1 /// SNORD22 /// SNORD25 /// SNORD26 /// SNORD27 /// SNORD28 /// SNORD29 /// SNORD31 / Fold change vs veh, SNHG1 /// SNORD22 /// SNORD25 /// SNORD26 /// SNORD27 /// SNORD28 /// SNORD29 /// SNORD31 / Fold change (Aza/veh), C12orf56 (ProbeSet 11735607_a_at) / Fold change (ACY-1035/veh), C12orf56 (ProbeSet 11735607_a_at) / Fold change (Aza/veh), FGFR1OP (ProbeSet 11751329_s_at) / Fold change (ACY-1035/veh), FGFR1OP (ProbeSet 11751329_s_at) / Fold change (Aza/veh), VPS36 (ProbeSet 11739960_a_at) / Fold change (ACY-1035/veh), VPS36 (ProbeSet 11739960_a_at) / RFU SYPL1 (11715823_x_at) / Fold change /veh SYPL1 (11715823_x_at) / RFU IGFBP7 (11715501_s_at) / Fold change /veh IGFBP7 (11715501_s_at) / RFU REEP3 (11722064_at) / Fold change /veh REEP3 (11722064_at) / RFU IGLL1 (11728026_x_at) / Fold change /veh IGLL1 (11728026_x_at): dose or concentration left out as unconfirmed. The note with it: ProbeSet 11743362_s_at; LIST B. The class given is cell-based, human.

Molecules are shown by their SMILES.

`Nc1ccc(-c2cccs2)cc1NC(=O)c1ccc2c(c1)cc(C1CC1)n2CCN1CCOCC1` [ACY-1035]: the “RFU, ADSS” value is given as 662.69 RFU.

Values taken from publication PMC5218480 (PLoS ONE, 2017).
